In US9957246B2, “Prodrugs of tetrahydrocannabinol, compositions comprising prodrugs of tetrahydrocannabinol and methods of using the same” (Zynerba Pharmaceuticals, Inc., priority 2007, dated 2018):
Structures can show the parent of a compound that is named as a salt.

Experiments:
[1] = Plasma stability of prodrugs (bioconversion to parent drug); assay type: in vitro ADME
Experimental: Approximately 1 mg/mL of stock solution of each prodrug was prepared in 100 μL of ethanol and 900 μL of acetonitrile. Next, 10 μL of stock was spiked into 1 mL of plasma and vortexed. The samples were kept sealed in an amber vial and samples were obtained to analyze for bioconversion to parent drug.
An approximated 1 mg/mL stock solution of each prodrug was prepared in 100 μL of ethanol and 900 μL of acetonitrile. Next, 10 μL of stock was spiked into 1 mL of plasma and vortexed. The samples were kept sealed in an amber vial and samples were obtained to analyze for bioconversion to parent drug.
Approximately 1 mg/mL of stock solution of each prodrug was prepared in 100 μL of ethanol and 900 μL of acetonitrile. Ten μL of stock was spiked into 1 mL of plasma and vortexed. The samples were kept sealed in an amber vial and samples were obtained to analyze for bioconversion to parent drug.

[2] = In vitro human skin permeation, flow-through diffusion cells
[3] = Table 9, 2.36:1.18:1 pH = 5.5 PG:ethanol:H2O donor solution, analyte: THC or intact prodrug as applied
[4] = Table 7, 2.36:1.18:1 PG:ethanol:H2O donor solution, analyte: THC from prodrug
[5] = Table 7, 2.36:1.18:1 PG:ethanol:H2O donor solution, analyte: THC or intact prodrug as applied
[6] = Table 7, 2.36:1.18:1 PG:ethanol:H2O donor solution, total THC equivalents (THC and/or prodrug)
[7] = Table 8, gel formulation, analyte: THC or intact prodrug as applied
[8] = Table 13, gel formulation with 40% aqueous PEG 400 receiver fluid, analyte: THC or intact prodrug as applied
[9] = Table 19, 90:8:2 PG:H2O:IPM donor solution, analyte: THC or intact prodrug as applied
[10] = Table 3, 1:1:1 PG:ethanol:H2O donor solution
[11] = Table 5, 1:1:1 PG:ethanol:H2O donor solution and higher flow rate
[12] = Table 6, 1:1:1 PG:ethanol:H2O donor solution, receiver fluid 25% aqueous ethanol
[13] = Table 6, 1:1:1 PG:ethanol:H2O donor solution, receiver fluid 40% aqueous PEG 400
[14] = Table 10, 2.36:1.18:1 pH = 5.5 PG:ethanol:H2O donor solution, analyte: THC or intact prodrug as applied
[15] = Table 17, 90:8:2 PG:H2O:IPM donor solution, analyte: THC or intact prodrug as applied
[16] = Table 18, 90:8:2 PG:H2O:IPM donor solution, analyte: THC or intact prodrug as applied
[17] = Table 20, 90:8:2 PG:H2O:IPM donor solution (saturated), analyte: THC or intact prodrug as applied

SMILES: CCCCCc1cc(OC(=O)C(=O)OCCOCCOCCOCCOC)c2c(c1)OC(C)(C)[C@@H]1CCC(C)=C[C@@H]21 [ALL00122, Δ^9-Tetrahydrocannabinol 3,6,9,12-tetraoxatridecyl oxalate]
- % Prodrug at time (h) ([1]; Table 11, 0.1 h): 0%
- % Prodrug at time (h) ([1]; Table 11, 1 h): 0%
- % Prodrug at time (h) ([1]; Table 11, 22 h): 0%
- % Prodrug at time (h) ([1]; Table 11, 24 h): 0%
- % Prodrug at time (h) ([1]; Table 11, 42 h): 0%
- 24 h skin conc [2, 3]: 52.7 ± 3.2 µmol/g

SMILES: CCCCCc1cc(OC(=O)CNC=O)c2c(c1)OC(C)(C)[C@@H]1CCC(C)=C[C@@H]21 [ALL00120, Δ^9-Tetrahydrocannabinol N-formylglycyl ester]
- % Prodrug at time (h) ([1]; Table 11, 0.1 h): 70%
- % Prodrug at time (h) ([1]; Table 11, 1 h): 8%
- % Prodrug at time (h) ([1]; Table 11, 22 h): 0%
- % Prodrug at time (h) ([1]; Table 11, 24 h): 0%
- % Prodrug at time (h) ([1]; Table 11, 42 h): 0%
- 24 h cumulative amt [2, 4]: 8.8 ± 1.2 nmol
- 24 h skin conc [2, 4]: 3.1 ± 1.1 µmol/g
- Flux [2, 4]: 0.6 ± 0.1 nmol/cm^2/h
- Lag time [2, 4]: 9.2 ± 0.8 h
- 24 h cumulative amt [2, 5]: 30.5 ± 7.0 nmol
- 24 h skin conc [2, 5]: 47.1 ± 6.3 µmol/g
- Flux [2, 5]: 2.0 ± 0.5 nmol/cm^2/h
- Lag time [2, 5]: 8.1 ± 1.6 h
- Flux enhancement ([2]; Table 7, 2.36:1.18:1 PG:ethanol:H2O donor solution, total THC equivalents): 0.87
- 24 h cumulative amt [2, 6]: 39.3 ± 6.6 nmol
- 24 h skin conc [2, 6]: 50.2 ± 7.1 µmol/g
- Flux [2, 6]: 2.7 ± 0.5 nmol/cm^2/h
- Lag time [2, 6]: 8.4 ± 1.3 h
- 24 h skin conc ([2]; Table 8, gel formulation, analyte: THC from prodrug): 3.1 ± 2.1 µmol/g
- 24 h skin conc [2, 7]: 44.8 ± 1.6 µmol/g
- 24 h skin conc ([2]; Table 8, gel formulation, total THC equivalents (THC and/or prodrug)): 47.9 ± 2.8 µmol/g

SMILES: CCCCCc1cc(OC(=O)CO)c2c(c1)OC(C)(C)[C@@H]1CCC(C)=C[C@@H]21 [ALL00154, Δ^9-Tetrahydrocannabinol glycolate]
- % Prodrug at time (h) ([1]; Table 14, 0 h): 95%
- % Prodrug at time (h) ([1]; Table 14, 1 h): 0%
- % Prodrug at time (h) ([1]; Table 14, 21 h): 0%
- % Prodrug at time (h) ([1]; Table 14, 24 h): 0%
- 24 h cumulative amt [2, 8]: 39.2 nmol
- 24 h skin conc [2, 8]: 2.6 ± 1.5 µmol/g
- Flux [2, 8]: 3.23 nmol/cm^2/h
- Lag time [2, 8]: 12.2 h

SMILES: CCCCCc1cc(OC(=O)[C@@H](O)CO)c2c(c1)OC(C)(C)[C@@H]1CCC(C)=C[C@@H]21 [ALL00134, A9-Tetrahydrocannabinol (S)-2,3-dihydroxypropanoate]
- % Prodrug at time (h) ([1]; Table 15, 0.1 h): 96%
- % Prodrug at time (h) ([1]; Table 15, 0.5 h): 61%
- % Prodrug at time (h) ([1]; Table 15, 2 h): 15%
- % Prodrug at time (h) ([1]; Table 15, 5 h): 0.8%
- % Prodrug at time (h) ([1]; Table 15, 24 h): 0%
- 24 h cumulative amt [2, 9]: 128.6 ± 5.1 nmol
- 24 h skin conc [2, 9]: 24.5 ± 12.3 µmol/g
- Flux [2, 9]: 8.0 ± 0.3 nmol/cm^2/h
- Lag time [2, 9]: 7.0 ± 0.1 h

SMILES: CCCCCc1cc(OC(=O)OCCCCN)c2c(c1)OC(C)(C)[C@@H]1CCC(C)=C[C@@H]21 [ALL00127, Δ^9-Tetrahydrocannabinol 4-aminobutyl carbonate]
- % Prodrug at time (h) ([1]; Table 15, 0.1 h): 100%
- % Prodrug at time (h) ([1]; Table 15, 1 h): 100%
- % Prodrug at time (h) ([1]; Table 15, 2.5 h): 91%
- % Prodrug at time (h) ([1]; Table 15, 3.5 h): 85%

SMILES: CCCCCc1cc(OC(=O)[C@H](O)CO)c2c(c1)OC(C)(C)[C@@H]1CCC(C)=C[C@@H]21 [ALL00144, THC (R)-2,3-dihydroxypropanoate]
- 24 h cumulative amt [2, 9]: 137.9 ± 55.2 nmol
- 24 h skin conc [2, 9]: 65.5 ± 39.5 µmol/g
- Flux [2, 9]: 8.6 ± 3.4 nmol/cm^2/h
- Lag time [2, 9]: 7.2 ± 0.1 h

SMILES: CCCCCc1cc(OC(=O)C2CCCN2)c2c(c1)OC(C)(C)[C@@H]1CCC(C)=C[C@@H]21 (some centres unmarked) [ALL00125, Δ^9-Tetrahydrocannabinol prolyl ester]
- % Prodrug at time (h) ([1]; Table 11, 0.1 h): 100%
- % Prodrug at time (h) ([1]; Table 11, 2 h): 77%
- % Prodrug at time (h) ([1]; Table 11, 5 h): 55%
- % Prodrug at time (h) ([1]; Table 11, 22 h): 0%
- % Prodrug at time (h) ([1]; Table 11, 24 h): 0%
- % Prodrug at time (h) ([1]; Table 11, 42 h): 0%

SMILES: CCCCCc1cc(O)c2c(c1)OC(C)(C)[C@@H]1CCC(C)=C[C@@H]21 [Δ^9-tetrahydrocannabinol, reference compound]
- 24 h cumulative amt ([2]; Table 2, 100% PG donor solution): 6.91 ± 2.1 nmol
- 24 h skin conc ([2]; Table 2, 100% PG donor solution, analyte: THC or intact prodrug (PD)): 74.8 ± 15.5 µmol/g
- 24 h cumulative amt [2, 10]: 9.0 ± 5.9 nmol
- Flux [2, 10]: 0.93 ± 0.58 nmol/cm^2/h
- Lag time [2, 10]: 13.0 ± 1.8 h
- 24 h skin conc ([2]; Table 3, 1:1:1 PG:ethanol:H2O donor solution, analyte: THC or intact prodrug (PD)): 59.4 ± 30.5 µmol/g
- 24 h cumulative amt ([2]; Table 4, gel formulation): 1.5 ± 0.3 nmol
- Flux ([2]; Table 4, gel formulation): 0.14 ± 0.03 nmol/cm^2/h
- Lag time ([2]; Table 4, gel formulation): 11.2 ± 2.7 h
- 24 h skin conc ([2]; Table 4, gel formulation, analyte: THC or intact prodrug (PD)): 100.4 ± 5.8 µmol/g
- 24 h cumulative amt [2, 11]: 6.0 ± 2.1 nmol
- 24 h skin conc [2, 11]: 133.8 ± 52.3 µmol/g
- Flux [2, 11]: 0.67 ± 0.15 nmol/cm^2/h
- Lag time [2, 11]: 8.9 ± 7.2 h
- 24 h cumulative amt [2, 12]: 9.4 ± 0.2 nmol
- 24 h skin conc [2, 12]: 24.1 ± 5.2 µmol/g
- Flux [2, 12]: 0.70 ± 0.01 nmol/cm^2/h
- Lag time [2, 12]: 6.9 ± 0.2 h
- 24 h cumulative amt [2, 13]: 28.6 ± 3.2 nmol
- 24 h skin conc [2, 13]: 17.4 ± 11.6 µmol/g
- Flux [2, 13]: 1.79 ± 0.39 nmol/cm^2/h
- Lag time [2, 13]: 6.4 ± 1.6 h
- 24 h cumulative amt [2, 5]: 43.1 ± 4.8 nmol
- 24 h skin conc [2, 5]: 75.2 ± 33.1 µmol/g
- Flux [2, 5]: 3.1 ± 0.2 nmol/cm^2/h
- Lag time [2, 5]: 9.0 ± 2.9 h
- 24 h cumulative amt [2, 7]: 10.7 ± 2.1 nmol
- 24 h skin conc [2, 7]: 40.9 ± 14.7 µmol/g
- Flux [2, 7]: 0.62 ± 0.23 nmol/cm^2/h
- Lag time [2, 7]: 5.3 ± 3.3 h
- 24 h cumulative amt [2, 3]: 16.3 ± 7.3 nmol
- 24 h skin conc [2, 3]: 16.1 ± 0.5 µmol/g
- Flux [2, 3]: 1.3 ± 0.5 nmol/cm^2/h
- Lag time [2, 3]: 11.4 ± 0.6 h
- 24 h cumulative amt [2, 14]: 33.6 ± 11.2 nmol
- 24 h skin conc [2, 14]: 7.4 ± 0.6 µmol/g
- Flux [2, 14]: 2.7 ± 1.1 nmol/cm^2/h
- Lag time [2, 14]: 10.8 ± 1.4 h
- 24 h cumulative amt [2, 8]: 3.1 ± 0.8 nmol
- 24 h skin conc [2, 8]: 3.6 ± 1.7 µmol/g
- Flux [2, 8]: 0.17 ± 0.02 nmol/cm^2/h
- Lag time [2, 8]: 4.6 ± 3.2 h
- 24 h cumulative amt [2, 15]: 16.3 ± 0.3 nmol
- 24 h skin conc [2, 15]: 6.1 ± 1.9 µmol/g
- Flux [2, 15]: 1.0 ± 0.3 nmol/cm^2/h
- Lag time [2, 15]: 5.8 ± 5.9 h
- 24 h cumulative amt [2, 16]: 53.3 ± 0.0 nmol
- 24 h skin conc [2, 16]: 17.4 ± 9.2 µmol/g
- Flux [2, 16]: 3.2 ± 0.0 nmol/cm^2/h
- Lag time [2, 16]: 6.2 ± 0.0 h
- 24 h cumulative amt [2, 9]: 29.8 ± 3.3 nmol
- 24 h skin conc [2, 9]: 23.3 ± 1.7 µmol/g
- Flux [2, 9]: 2.0 ± 0.3 nmol/cm^2/h
- Lag time [2, 9]: 8.7 ± 0.3 h
- 24 h cumulative amt [2, 17]: 15.7 ± 4.5 nmol
- 24 h skin conc [2, 17]: 8.5 ± 3.5 µmol/g
- Flux [2, 17]: 1.1 ± 0.3 nmol/cm^2/h
- Lag time [2, 17]: 9.0 ± 0.7 h
